Assay results as given in patent US7662629B2, “Peptide scaffolds for transfer of molecules into eukaryotic cells” (Trustees of the University of Pennsylvania, priority 1998, dated 2010).

Experiments:
confluent BAEC [1] = test: Total β-galactosidase expression measured fluorometrically in cell lysates; format: cell-based, bovine; conditions: for enhancement of β-galactosidase expression / gene transfer: lipofection; for increase in total β-galactosidase expression over transfection with plasmid alone: plasmid precomplexed with peptide, lipofectamine
Method: (§1) Bovine aortic endothelial cells (BAEC) (passage<10) are grown to confluence, passed to a 6-well culture dish at a split ratio of 1:3, and then grown to confluence as described by Subramanian, A. and Diamond, S. L. Tissue Engineering 3, 39-52, 1997. Growth medium is Dulbecco's modified Eagle's medium (DMEM) containing 10% heat inactivated newborn calf serum, 0.30 mg/ml of glutamine, 150 U/ml penicillin and 0.15 mg/ml streptomycin (GIBCO, Grand Island, N.Y.). Hela cells (Hela S3 ATCC No. CCL 2.2) are grown in DMEM media (Gibco BRL) supplemented with 10% fetal calf serum as described by Ranjan, V. and Diamond, S. L. Biochem. Biophys. Res. Comm. 196, 79, 1993.
(§2) Cationic liposomes (Lipofectamine Reagent, Gibco-BRL), containing a 3:1 by weight mixture of polycationic lipid 2,3-dioleoyloxy-N-[2(sperminecarboxamido)ethyl]-N,N-dimethyl-1 propanaminium trifluoroacetate (DOSPA) and the neutral lipid dioleoyl phosphatidylethanolamine (DOPE) was used in all transfections in accordance with procedures described by Subramanian, A. and Diamond, S. L. Tissue Engineering 3, 39-52, 1997. Pure liposome (10 μl) diluted to 100 μl are added to the DNA/scaffold complex, incubated for 45 minutes. Then 0.8 ml of OPTIMEM media is added to this mixture which is then overlaid on the cells. The cells are incubated for 2 hours at 37 ? C. After two hours, the mixture is aspirated, 4% serum in OPTIMEM media is added, and the cells are allowed to grow for 48 hours. The cells are then fixed and assayed for ? -gal activity. During the transfections, the cells are continuously monitored for cell viability and adhesion.
To assay for ? gal to measure % transfection, cells are stained with XGAL as described by Subramanian, A. and Diamond, S. L. Tissue Engineering 3, 39-52, 1997. The percent of cells stained per field of view is counted using a Zeiss 125M inverted microscope. The count is averaged from at least 4 fields of view for each transfected monolayer. To measure ? -gal expression quantitatively, cell lysates are prepared and tested for ? -gal activity against the fluorogenic substrate, fluorescein di- ? -D-galactopyranoside (FDG, F-1179 Molecular Probes) which is not fluorescent until cleaved to fluorescein monogalactoside and then to fluorescein (excitation/emission: 494/520 nM). For flow cytometry, the trypsinized cell suspension is supplemented with serum, pelleted (100 g) and resuspended in staining medium to approximately 10^7 cells/ml. A 100 μL cell suspension is maintained at 37 ? C and 100 μl of 2 mM FDG maintained at 37 ? C is then added to the cell suspension, mixed rapidly and incubated at 37 ? C for 1 minute. The FDG loading is stopped at the end of 1 minute by adding 1.8 mL of ice-cold staining medium containing 1.5 μM Propidium Iodide and 1 mM PETG. The cells are kept on ice prior to flow cytometer analysis using a Becton Dickinson FACScan system. Unstained BAEC cells allow compensation for autofluorescence. The histogram showing fluorescence/cell to the number of cells is used to calculate the % transfection.

confluent BAEC [2] = test: Flow cytometry (FDG) of confluent BAEC lipofected with pCMVβgal ± peptides; format: cell-based, bovine; conditions: 1 μg plasmid
Method: as §1
as §2, with “The cells are incubated for 2 hours at 37 ? C. After two hours, the mixture is aspirated, 4% serum in OPTIMEM media is added, and the cells are allowed to grow for 48 hours. The cells are then fixed and assayed for ? -gal activity.” left out, “adhesion. […]” for “adhesion.”

plasmid = test: Ethidium bromide fluorescence release assay of plasmid condensation; format: binding; conditions: electrostatic interactions
Excerpt: Several different cationic scaffolds that are rich in amine suitable for conjugation reactions and which mediate electrostatic complexation or condensation with plasmid are used. These scaffolds can include: SV40 T antigen NLS (SVT=CGYGPKKKRKVGG (SEQ ID NO:5)), a mutated version of the SV40 T antigen NLS (muT=VKKGKCRPGKGYG (SEQ ID NO:2)), poly-L-lysine (MW 1, 4, and 30-70 kDa), histone H1, and hydrophilic amine-terminated dendrimers (87,340 MW) of small size (8.4 nm) available through Polysciences, Inc. (Warrington, Pa.). These scaffolds are tested for DNA condensation using a fluorescence quench assay of ethidium bromide labeled plasmid. Synthetic peptides with a C-terminus Gly-Gly-Gly-Cys-COOH (SEQ ID NO:19) linked to M9 or KNS are grafted at 1:1 to 3:1 to the activated amine-rich scaffolds. The crosslinker succinimidyl 4-(N-maleimidomethyl)cyclohexane-1 (SMCC, Pierce) is added at a final concentration of 10 mM (at 10% DMSO) to 100 μg amine rich scaffold (pH 7.2, 25 ? C for 2 hours) to react the SMCC NHS-ester to the primary amine of the scaffold. Excess SMCC and DMSO are removed by sephadex G-15 chromatography. The activated scaffold is conjugated with equimolar or 2 to 3-fold excess of the KNS or M9 peptide at 4 μC (16 hours) by maleimide reaction with the SH moiety of the C-terminal cysteine. Individual reaction species are isolated by electroelution or FLPC. […]

Row | Substance | enhancement of β-galactosidase expression / gene transfer (confluent BAEC [1]) | percent transfection: percent of cells with fluorescence ≧100 f.u. (confluent BAEC [2]) | increase in total β-galactosidase expression over transfection with plasmid alone (confluent BAEC [1]) | plasmid condensation (plasmid)
1 | CGYGPKKKRKVGG [SV40 T-antigen consensus NLS, reference compound] | A similar level of increase | – | – | –
2 | NQSSNFGPMKGGNFGGRSSGPYGGGGQYFAKPRNQGGY-GGGC (NQSSNFGPMKGGNFGGRSSGPYGGGGQYFAKPRNQGGYGGGC; C-terminal GGGC extension) [M9 peptide] | – | 55% | 18.3 fold | –
3 | VKKGKCRPGKGYG [ScT] | little benefit | – | 4 fold | condenses plasmid effectively
4 | polylysine [reference compound] | A similar level of increase | – | – | –
